Source: patent publication US4528369A, “20-Dihydro-20-deoxy-23-de(mycinosyloxy)tylosin” (Eli Lilly and Company, priority 1983, dated 1985)
In brackets after ≈: the same amount, converted by molar mass. Entries after “also recorded” stand apart in the source; their conditions may differ. Read-outs that look alike come from different tables or passages of the source.

Columns and labels:
Solubility = format: physicochemical; conditions: free base
[1] = test system: pathogenic bacteria, especially gram-positive bacteria and Mycoplasma species; test: Inhibition of growth of pathogenic bacteria (in words); format: cell-based
Description: (§1) Tables II and III summarize the minimal inhibitory concentrations (MIC) at which 20-deoxo-DMOT and mycaminosyltylactone (as free bases) inhibit certain organisms. The MIC's in Table II were determined by standard agar-dilutionassays. The MIC's in Table III were obtained using a conventional broth-dilution microtiter test.

[2] = test system: Staphylococcus aureus X400; test: MIC, standard agar-dilution assay (Table II); format: cell-based
Description: as §1

[3] = test system: Klebsiella pneumoniae KAE; test: MIC, standard agar-dilution assay (Table II); format: cell-based; conditions: free base, K. pneumoniae KAE
Description: as §1

[4] = test system: Streptococcus faecium ATCC 9790; test: MIC, standard agar-dilution assay (Table II); format: cell-based; conditions: Enterococcus faecium, ATCC9790
Description: as §1

[5] = test system: Streptococcus pyogenes C203; test: MIC, standard agar-dilution assay (Table II); format: cell-based
Description: as §1

[6] = test system: Staphylococcus epidermidis EPI2; test: MIC, standard agar-dilution assay (Table II); format: cell-based; conditions: free base, S. epidermidis EPI2
Description: as §1

[7] = test system: Staphylococcus aureus V41; test: MIC, standard agar-dilution assay (Table II); format: cell-based; conditions: free base, S. aureus V41
Description: as §1

[8] = test system: Streptococcus sp. group D 9960; test: MIC, standard agar-dilution assay (Table II); format: cell-based
Description: as §1

[9] = test system: Staphylococcus epidermidis EPI1; test: MIC, standard agar-dilution assay (Table II); format: cell-based; conditions: free base, S. epidermidis EPI1
Description: as §1

[10] = test system: Klebsiella pneumoniae X26; test: MIC, standard agar-dilution assay (Table II); format: cell-based
Description: as §1

[11] = test system: Haemophilus influenzae 76; test: MIC, standard agar-dilution assay (Table II); format: cell-based
Description: as §1

[12] = test system: Streptococcus pneumoniae Park 1; test: MIC, standard agar-dilution assay (Table II); format: cell-based; conditions: PARK1, free base, S. pneumoniae Park 1
Description: as §1

[13] = test system: Staphylococcus aureus S13E; test: MIC, standard agar-dilution assay (Table II); format: cell-based
Description: as §1

Shigella sonnei N9 = test: MIC, standard agar-dilution assay (Table II); format: cell-based; conditions: free base
Description: as §1

Escherichia coli TEM = test: MIC, standard agar-dilution assay (Table II); format: cell-based
Description: as §1

[14] = test system: Haemophilus influenzae C.L.; test: MIC, standard agar-dilution assay (Table II); format: cell-based
Description: as §1

Escherichia coli N10 = test: MIC, standard agar-dilution assay (Table II); format: cell-based; conditions: free base, E. coli N10
Description: as §1

Escherichia coli EC14 = test: MIC, standard agar-dilution assay (Table II); format: cell-based; conditions: free base, E. coli EC14
Description: as §1

[15] = test system: Staphylococcus aureus NRRL B313; test: MIC, standard agar-dilution assay (Table II); format: cell-based
Description: as §1

[16] = test system: Pasteurella multocida 60A; test: MIC, conventional broth-dilution microtiter test (Table III); format: cell-based; conditions: free base, P. multocida 60A, avian isolate
Description: as §1

[17] = test system: Pasteurella multocida 17E; test: as above; format: cell-based; conditions: free base, P. multocida 17E, bovine isolate
Description: as §1

Mycoplasma gallisepticum = test: as above; format: cell-based; conditions: Mycoplasmoides gallisepticum, free base, M. gallisepticum
Description: as §1

Mycoplasma hyorhinis = test: as above; format: cell-based; conditions: free base, M. hyorhinis
Description: as §1

Mycoplasma synoviae = test: as above; format: cell-based; conditions: Mycoplasmopsis synoviae, free base, M. synoviae
Description: as §1

[18] = test system: Pasteurella hemolytica 22C; test: as above; format: cell-based; conditions: free base, P. hemolytica 22C
Description: as §1

## CCC1CC(C)C(=O)/C=C/C(C)=C/C(C)C(CC)OC(=O)CC(O)C(C)C1OC1OC(C)C(OC2CC(C)(O)C(O)C(C)O2)C(N(C)C)C1O (stereo not shown) [20-Deoxo-DMOT, 20-dihydro-20-deoxy-23-de(mycinosyloxy)tylosin]
Solubility
  solubility in water: slightly soluble in water
Solubility; acetone, methanol, ethanol, chloroform, dimethylformamide and dimethyl sulfoxide
  solubility in polar organic solvents: soluble in most polar organic solvents such as acetone, methanol, ethanol, chloroform, dimethylformamide and dimethyl sulfoxide
[1]
  antibacterial activity (in words): some antibacterial activity; also recorded: inhibit the growth of pathogenic bacteria, especially gram-positive bacteria and Mycoplasma species
[2]; X400
  MIC: 128 µg/mL (≈ 180 µM)
[3]
  MIC: > 128 µg/mL
[4]
  MIC: > 128 µg/mL
[5]; C203
  MIC: 128 µg/mL (≈ 180 µM)
[6]
  MIC: 64 µg/mL (≈ 89.9 µM)
[7]
  MIC: 64 µg/mL (≈ 89.9 µM)
[8]; Streptococcus
  MIC: > 128 µg/mL
[9]
  MIC: 64 µg/mL (≈ 89.9 µM)
[10]; X26
  MIC: > 128 µg/mL
[11]; 76
  MIC: > 128 µg/mL
[12]
  MIC: 64 µg/mL (≈ 89.9 µM)
[13]
  MIC: 64 µg/mL (≈ 89.9 µM)
Shigella sonnei N9
  MIC: > 128 µg/mL
Escherichia coli TEM
  MIC: > 128 µg/mL
[14]
  MIC: > 128 µg/mL
Escherichia coli N10
  MIC: > 128 µg/mL
Escherichia coli EC14
  MIC: > 128 µg/mL
[15]; NRRLB313
  MIC: 128 µg/mL (≈ 180 µM)
[16]
  MIC: > 50 µg/mL
[17]
  MIC: > 50 µg/mL
Mycoplasma gallisepticum
  MIC: > 50 µg/mL
Mycoplasma hyorhinis
  MIC: 50 µg/mL (≈ 70.2 µM)
Mycoplasma synoviae
  MIC: 50 µg/mL (≈ 70.2 µM)
[18]
  MIC: > 50 µg/mL

## CCC1CC(C)C(=O)/C=C/C(C)=C/C(C)C(CC)OC(=O)CC(O)C(C)C1OC1OC(C)C(O)C(N(C)C)C1O (stereo not shown) [Mycaminosyltylactone, 5-O-mycaminosyltylactone]
[1]
  antibacterial activity (in words): inhibit the growth of pathogenic bacteria, especially gram-positive bacteria and Mycoplasma species
[2]; free base, agar-dilution, S. aureus X400, read-out: MIC
  MIC: 32 µg/mL (≈ 56.4 µM)
[3]
  MIC: > 128 µg/mL
[4]; free base, agar-dilution, S. faecium ATCC 9790, read-out: MIC
  MIC: 32 µg/mL (≈ 56.4 µM)
[5]; free base, agar-dilution, S. pyogenes C203, read-out: MIC
  MIC: 32 µg/mL (≈ 56.4 µM)
[6]
  MIC: 16 µg/mL (≈ 28.2 µM)
[7]
  MIC: 16 µg/mL (≈ 28.2 µM)
[8]; free base, agar-dilution, Streptococcus sp. group D 9960, read-out: MIC
  MIC: 32 µg/mL (≈ 56.4 µM)
[9]
  MIC: 8 µg/mL (≈ 14.1 µM)
[10]; free base, agar-dilution, K. pneumoniae X26, read-out: MIC
  MIC: 8 µg/mL (≈ 14.1 µM)
[11]; free base, agar-dilution, H. influenzae 76, read-out: MIC
  MIC: 16 µg/mL (≈ 28.2 µM)
[12]
  MIC: 4 µg/mL (≈ 7.05 µM)
[13]
  MIC: 8 µg/mL (≈ 14.1 µM)
Shigella sonnei N9
  MIC: > 128 µg/mL
Escherichia coli TEM
  MIC: > 128 µg/mL
[14]; free base, agar-dilution, H. influenzae C.L., read-out: MIC
  MIC: 16 µg/mL (≈ 28.2 µM)
Escherichia coli N10
  MIC: > 128 µg/mL
Escherichia coli EC14
  MIC: > 128 µg/mL
[15]; NRRLB313, free base, agar-dilution, S. aureus NRRL B313, read-out: MIC
  MIC: 16 µg/mL (≈ 28.2 µM)
[16]
  MIC: 12.5 µg/mL (≈ 22 µM)
[17]
  MIC: 12.5 µg/mL (≈ 22 µM)
Mycoplasma gallisepticum
  MIC: 1.56 µg/mL (≈ 2.75 µM)
Mycoplasma hyorhinis
  MIC: 50 µg/mL (≈ 88.1 µM)
Mycoplasma synoviae
  MIC: 12.5 µg/mL (≈ 22 µM)
[18]
  MIC: 25 µg/mL (≈ 44 µM)
